Measured values reported in patent publication US20230009608A1, “GRK2 INHIBITORS AND USES THEREOF” (Cygnal Therapeutics, Inc., priority 2020, published 2023).

target: T1, GRK2 (Homo sapiens, UniProt P25098); test: ADPGlo GRK2 Inhibition Assay (Example 8); type: biochemical; conditions: ADPGlo GRK2 enzyme assay; read-out: A: Enzymatic GRK2: IC50 (nM) (Example 8)
T1 construct: purchased SignalChem A14-10G
T1 sequence (P25098 1-689): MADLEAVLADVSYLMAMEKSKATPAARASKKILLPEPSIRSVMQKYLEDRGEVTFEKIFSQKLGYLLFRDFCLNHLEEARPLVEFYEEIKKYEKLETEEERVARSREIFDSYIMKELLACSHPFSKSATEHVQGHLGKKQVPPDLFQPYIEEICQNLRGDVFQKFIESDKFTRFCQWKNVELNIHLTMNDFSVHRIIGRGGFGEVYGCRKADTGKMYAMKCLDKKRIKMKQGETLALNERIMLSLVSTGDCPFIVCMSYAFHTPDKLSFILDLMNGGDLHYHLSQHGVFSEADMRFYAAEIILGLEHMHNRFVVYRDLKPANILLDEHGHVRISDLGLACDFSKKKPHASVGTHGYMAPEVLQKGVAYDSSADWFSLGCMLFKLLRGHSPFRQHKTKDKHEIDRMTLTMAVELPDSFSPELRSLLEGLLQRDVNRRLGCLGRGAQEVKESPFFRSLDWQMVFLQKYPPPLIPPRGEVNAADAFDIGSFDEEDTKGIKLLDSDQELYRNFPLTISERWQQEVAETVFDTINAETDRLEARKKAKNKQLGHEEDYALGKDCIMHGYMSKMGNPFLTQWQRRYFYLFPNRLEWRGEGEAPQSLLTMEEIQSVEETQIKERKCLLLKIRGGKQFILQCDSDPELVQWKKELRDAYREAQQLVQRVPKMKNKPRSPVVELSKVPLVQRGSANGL
Method: HTS was performed using 1 μM compound.
Compounds were dissolved in 100% DMSO, serially diluted tree-fold from 100 μM concentration to 46 nM and transferred (50 nL) into assay ready plate.
Materials: GRK2 was purchased from SignalChem (Cat #A14-10G, Lot #X^645-3). Substrate GRKtide was from SignalChem (Cat #G46-58, Lot #R339-6). ADP-Glo Kinase Assay from Promega (Cat #V9102). Assay buffer consisted of 25 mMv HEPES (pH7.5), 10 mMv MgCl2, 0.01% Tween-20, 1 mM DDT. 384-well white plates were from Greiner […] (Item #784075).
HTS protocol: Take 384 well plate with 50 nL of compound in columns 3-22/DMSO solution 1-2,23-24. Add 2.5 μL assay buffer to columns 23 and 24 using Thermo Scientific Multidrop Combi Dispenser. Add 2.5 μL of 2× enzyme solution (15 nM in 1× assay buffer) using Thermo Scientific Multidrop Combi Reagent Dispenser to all columns except of 23 and 24. Incubate for 15 minutes. Fill plate with 2.5 μL of 2× substrate mix (20 μM ATP and 0.6 mg/nt GRKtide in Ix assay buffer) using Thermo Scientific Multidrop Combi Reagent Dispenser. Spin 15 seconds at 1000 rpm and incubate for 180 min at room temperature. Add 5 μL ADP-Glo reagent to all the wells. Spin 15 seconds at 1000 rpm and incubate for 40 min at room temperature. Add 10 μL Detection solution to all the wells. Incubate for 30 min at room temperature. Read plate in Luminescent modeon BMG PheraStar FSX (gain=3600).
Data Analysis: Data were analyzed in GraphPad Prism 8.0.2. Each HTS plate contains compounds in columns 3-22, controls (enzyme, no compound) in columns 1 and 2, and blanks (no enzyme) in columns 23 and 24. HTS percent inhibition was calculated for each compound from the signal in luminescence units and the mean of the plate controls and the mean of the plate blanks using the following equation: % Inhibition=100*(1−((signal-blank mean)/(control mean-blank mean))). At the final stage of data processing, we obtain dose-response curves, tables and SDF-files with the results of screening for each substance.

SMILES | IC50
CCc1n[nH]c(=O)c(CNC(=O)c2cccc(NCc3nnc(-c4ccncn4)n3C)c2)c1CC | 504 nM
CN1CCN(c2ncccc2CNC(=O)c2cccc(NCc3nnc(-c4ccncn4)n3C)c2)CC1 | 289 nM
Cn1c(CNc2cccc(C(=O)NCc3ccccc3CN3CCC(O)C3)c2)nnc1-c1ccncn1 (centres unmarked) | 136 nM
Cn1c(CNc2cccc(C(=O)NCc3ccncc3OCC3CCOC3)c2)nnc1-c1ccncn1 (centres unmarked) | 871 nM
CC(C)NS(=O)(=O)Cc1ccccc1CNC(=O)c1cccc(NCc2nnc(-c3ccncn3)n2C)c1 | 69.8 nM
Cn1c(CNc2cccc(C(=O)NCc3c4c(n[nH]c3=O)CCCC4)c2)nnc1-c1ccncn1 | 531 nM
Cn1c(CNc2cccc(C(=O)NCc3nccnc3O)c2)nnc1-c1ccncn1 | 728 nM
Cc1ncc(CNC(=O)c2cccc(NCc3nnc(-c4ccncn4)n3C)c2)c(O)n1 | 382 nM
Cn1c(CNc2cccc(C(=O)NCc3cc(Br)cnc3O)c2)nnc1-c1ccncn1 | 103 nM
Cn1c(CNc2cccc(C(=O)NC3(c4ncccc4F)CC3)c2)nnc1-c1ccncn1 | 104 nM
CN(C)c1cccnc1CNC(=O)c1cccc(NCc2nnc(-c3ccncn3)n2C)c1 | 120 nM
CC(O)C(NC(=O)c1cccc(NCc2nnc(-c3ccncn3)n2C)c1)c1ccccc1F (centres unmarked) | 209 nM
Cn1c(CNc2cccc(C(=O)NCc3cccnc3-n3cccn3)c2)nnc1-c1ccncn1 | 146 nM
CCN1CCN(Cc2ccccc2CNC(=O)c2cccc(NCc3nnc(-c4ccncn4)n3C)c2)CC1 | 267 nM
Cn1c(CNc2cccc(C(=O)NC(CO)c3c(F)cccc3F)c2)nnc1-c1ccncn1 (centres unmarked) | 146 nM
Cn1c(CNc2cccc(C(=O)NCc3ccccc3-n3cccn3)c2)nnc1-c1ccncn1 | 184 nM
Cn1c(CNc2cccc(C(=O)NCc3cccnc3N3CCOCC3)c2)nnc1-c1ccncn1 | 176 nM
Cn1c(CNc2cccc(C(=O)NCc3ccccc3OCCN3CCOCC3)c2)nnc1-c1ccncn1 | 145 nM
Cc1ccccc1C(CN1CCOCC1)NC(=O)c1cccc(NCc2nnc(-c3ccncn3)n2C)c1 (centres unmarked) | 505 nM
COc1cccc2c1CCC2(CO)NC(=O)c1cccc(NCc2cnc(-c3ccncn3)n2C)c1 (centres unmarked) | 134 nM
Cn1c(CNc2cccc(C(=O)NC3(CO)CCc4ccccc43)c2)cnc1-c1ccncn1 (centres unmarked) | 929 nM
Cn1c(CNc2cccc(C(=O)NC3(CO)CCCc4ccccc43)c2)nnc1-c1ccncn1 (centres unmarked) | 651 nM
Cn1c(CNc2cccc(C(=O)NC3(CO)CCOc4ccccc43)c2)nnc1-c1ccncn1 (centres unmarked) | 283 nM
CN1CCc2ccccc2C(NC(=O)c2cccc(NCc3nnc(-c4ccncn4)n3C)c2)C1=O (centres unmarked) | 253 nM

SMILES | IC50
Cn1c(CNc2cccc(C(=O)NC3CCCc4[nH]c(=O)ccc43)c2)nnc1-c1ccncn1 (centres unmarked) | 392 nM
Cn1c(CNc2cccc(C(=O)NC3CCCS(=O)(=O)c4ccccc43)c2)nnc1-c1ccncn1 (centres unmarked) | 194 nM
Cn1c(CNc2cccc(C(=O)NC3CNCCc4ccccc43)c2)nnc1-c1ccncn1 (centres unmarked) | 142 nM
CN1CCN(Cc2ccccc2CNC(=O)c2cccc(NCc3nnc(-c4ccncn4)n3C)c2)CC1 | 159 nM
Cn1c(CNc2cccc(C(=O)NCc3cccnc3-n3cncn3)c2)nnc1-c1ccncn1 | 119 nM
CNc1cccnc1CNC(=O)c1cccc(NCc2nnc(-c3ccncn3)n2C)c1 | 133 nM
Cn1c(CNc2cccc(C(=O)NCc3ncccc3S(C)(=O)=O)c2)nnc1-c1ccncn1 | 172 nM
COc1cccc(CCNC(=O)c2cccc(NCc3nnc(-c4ccncn4)n3C)c2)c1 | 340 nM
Cn1c(CNc2cccc(C(=O)NCc3cnn(C(C)(C)C)c3)c2)nnc1-c1ccncn1 | 135 nM
C[C@H](NC(=O)c1cccc(NCc2nnc(-c3ccncn3)n2C)c1)c1ccc(Cl)cn1 | 950 nM
COc1ccc([C@H](C)NC(=O)c2cccc(NCc3nnc(-c4ccncn4)n3C)c2)cc1 | 593 nM
Cn1c(CNc2cccc(C(=O)NCc3ccc(CO)c(F)c3)c2)nnc1-c1ccncn1 | 103 nM
Cn1c(CNc2cccc(C(=O)NCc3ccc(O)nc3)c2)nnc1-c1ccncn1 | 203 nM
Cn1c(CNc2cccc(C(=O)NCC3(c4ccccn4)CC3)c2)nnc1-c1ccncn1 | 526 nM
Cc1c[nH]c(=O)c(CNC(=O)c2cccc(NCc3nnc(-c4ccncn4)n3C)c2)c1 | > 1000 nM
Cn1c(CNc2cccc(C(=O)NCc3cc4n(n3)CCC4)c2)nnc1-c1ccncn1 | > 1000 nM
CCc1ccc(CNC(=O)c2cccc(NCc3nnc(-c4ccncn4)n3C)c2)nc1 | 271 nM
Cn1c(CNc2cccc(C(=O)NCc3ccc(O)c(F)c3)c2)nnc1-c1ccncn1 | 118 nM
Cc1cnc(CCNC(=O)c2cccc(NCc3nnc(-c4ccncn4)n3C)c2)c(C)c1 | 432 nM
Cc1ccc(CNC(=O)c2cccc(NCc3nnc(-c4ccncn4)n3C)c2)nc1C | 182 nM
Cn1c(CNc2cccc(C(=O)NC3(c4ncc[nH]4)CC3)c2)nnc1-c1ccncn1 | 748 nM
COc1ccc(CNC(=O)c2cccc(NCc3nnc(-c4ccncn4)n3C)c2)cc1 | 913 nM
Cn1c(CNc2cccc(C(=O)NC3CCn4nccc4C3)c2)nnc1-c1ccncn1 (centres unmarked) | 133 nM
CC(Cc1ccccn1)NC(=O)c1cccc(NCc2nnc(-c3ccncn3)n2C)c1 (centres unmarked) | 290 nM

SMILES | IC50
Cn1c(CNc2cccc(C(=O)NC(C)(CO)c3ccccn3)c2)nnc1-c1ccncn1 (centres unmarked) | 511 nM
Cn1c(CNc2cccc(C(=O)NC(CO)c3ccccn3)c2)nnc1-c1ccncn1 (centres unmarked) | 177 nM
Cn1c(CNc2cccc(C(=O)NC3CCCn4nccc43)c2)nnc1-c1ccncn1 (centres unmarked) | 171 nM
CC(Cc1nccn1C)NC(=O)c1cccc(NCc2nnc(-c3ccncn3)n2C)c1 (centres unmarked) | 732 nM
Cn1c(CNc2cccc(C(=O)NCC3Cc4ccccc4O3)c2)nnc1-c1ccncn1 (centres unmarked) | 208 nM
CCn1ccnc1C(C)NC(=O)c1cccc(NCc2nnc(-c3ccncn3)n2C)c1 (centres unmarked) | 189 nM
CC(C)C(NC(=O)c1cccc(NCc2nnc(-c3ccncn3)n2C)c1)c1nccn1C (centres unmarked) | 152 nM
Cc1nc2c(c(C)c1CNC(=O)c1cccc(NCc3nnc(-c4ccncn4)n3C)c1)c(=O)[nH]n2C | 181 nM
Cn1c(CNc2cccc(C(=O)NC3CCCc4c3ccc(=O)n4C)c2)nnc1-c1ccncn1 (centres unmarked) | > 1000 nM
CN1CCN(S(=O)(=O)c2ccccc2CNC(=O)c2cccc(NCc3nnc(-c4ccncn4)n3C)c2)CC1 | 344 nM
COc1ccc([C@H](C)NC(=O)c2cccc(NCc3nnc(-c4ccncn4)n3C)c2)c(OC)c1 | 310 nM
COc1ccc([C@@H](C)NC(=O)c2cccc(NCc3nnc(-c4ccncn4)n3C)c2)c(OC)c1 | 8.56 nM
COc1ccccc1[C@H](NC(=O)c1cccc(NCc2nnc(-c3ccncn3)n2C)c1)c1noc(C)n1 | 741 nM
COc1ccccc1[C@@H](NC(=O)c1cccc(NCc2nnc(-c3ccncn3)n2C)c1)c1noc(C)n1 | 333 nM
CCCCCOc1ccc2c(c1)[C@H](NC(=O)c1cccc(NCc3nnc(-c4ccncn4)n3C)c1)CCO2 | 732 nM
CCCCCOc1ccc2c(c1)[C@H](NC(=O)c1cccc(NCc3nnc(-c4ccncn4)n3C)c1)CO2 | 550 nM
C[C@@H](NC(=O)c1cccc(NCc2nnc(-c3ccncc3)n2CCO)c1)c1ncccc1Cl | 11.9 nM
Cn1c(CNc2cc(C(=O)N[C@@H]3COCc4ccccc43)ccn2)nnc1-c1ccncn1 | 18.7 nM
CNS(=O)(=O)c1cccc(F)c1CNC(=O)c1ccnc(NCc2nnc(-c3ccncn3)n2C)c1 | 15.1 nM
Cn1c(CNc2cc(C(=O)N[C@@H]3COc4cc(F)ccc43)ccn2)nnc1-c1ccncn1 | 37.5 nM
Cc1cccnc1CNC(=O)c1cccc(NCc2nnc(-c3ccncc3F)n2C)c1 | 312 nM
Cn1c(CNc2cccc(C(=O)NCc3ccncc3Cl)c2)nnc1-c1ccncc1F | 31.9 nM
Cc1cc2c(cc1CNC(=O)c1cccc(NCc3nnc(-c4ccncc4F)n3C)c1)OCCO2 | 8 nM
